Data: patent US10870647B2, “Imidazopyridine derivative, method for preparing same, and pharmaceutical composition containing same as active ingredient for preventing or treating cancer” (DAEGU-GYEONGBUK MEDICAL INNOVATION FOUNDATION, priority 2016, dated 2020)

How the values were obtained:
Assay in all cases: Kinase selectivity, scanMAX Kinase assay panel (DiscoverX), % control at 1 uM
Assay type in all cases: binding
[1] = molecular target: T1, scanMAX Kinase assay panel (Homo sapiens, UniProt P00519, E255K); conditions: ABL1 (E255K)-phosphorylated; 1 uM; read-out: Percent Control (%)
T1 construct: purchased DiscoverX
T1 sequence (P00519 whole entry E255K): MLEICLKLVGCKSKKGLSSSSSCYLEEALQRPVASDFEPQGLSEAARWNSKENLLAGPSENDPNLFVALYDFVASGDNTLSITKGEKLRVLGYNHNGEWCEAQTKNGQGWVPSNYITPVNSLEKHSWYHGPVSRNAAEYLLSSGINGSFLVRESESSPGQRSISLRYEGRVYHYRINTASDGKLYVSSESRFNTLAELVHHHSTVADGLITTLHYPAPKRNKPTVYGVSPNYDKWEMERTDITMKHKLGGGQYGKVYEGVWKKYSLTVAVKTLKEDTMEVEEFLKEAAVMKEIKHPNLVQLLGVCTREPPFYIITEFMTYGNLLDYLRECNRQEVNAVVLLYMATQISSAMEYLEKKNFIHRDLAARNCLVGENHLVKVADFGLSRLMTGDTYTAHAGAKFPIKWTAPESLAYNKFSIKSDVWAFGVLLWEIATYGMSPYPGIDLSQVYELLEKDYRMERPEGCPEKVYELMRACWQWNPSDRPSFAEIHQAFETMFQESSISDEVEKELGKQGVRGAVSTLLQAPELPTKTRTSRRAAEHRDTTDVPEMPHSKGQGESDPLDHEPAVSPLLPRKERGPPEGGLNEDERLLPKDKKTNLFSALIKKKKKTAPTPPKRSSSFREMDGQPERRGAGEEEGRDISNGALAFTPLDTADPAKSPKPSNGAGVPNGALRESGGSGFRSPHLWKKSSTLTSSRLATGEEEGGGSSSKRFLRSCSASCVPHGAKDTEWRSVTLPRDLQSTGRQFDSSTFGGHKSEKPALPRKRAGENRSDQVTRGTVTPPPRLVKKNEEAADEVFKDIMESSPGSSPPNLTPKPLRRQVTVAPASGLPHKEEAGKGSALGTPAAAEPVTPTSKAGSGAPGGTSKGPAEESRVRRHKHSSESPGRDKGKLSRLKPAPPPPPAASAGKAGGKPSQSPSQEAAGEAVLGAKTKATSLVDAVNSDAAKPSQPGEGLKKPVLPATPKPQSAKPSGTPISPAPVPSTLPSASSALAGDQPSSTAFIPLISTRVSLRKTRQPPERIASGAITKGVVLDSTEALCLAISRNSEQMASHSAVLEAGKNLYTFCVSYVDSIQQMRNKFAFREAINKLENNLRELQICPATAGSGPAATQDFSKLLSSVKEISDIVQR
Outline: (§1)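 1 uM cpd (DMSO) per kinase; % ctrl = [cpd − pos ctrl]/[neg ctrl − pos ctrl] × 100; hit if <35.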

[2] = molecular target: T2, scanMAX Kinase assay panel (Homo sapiens, UniProt P21802); conditions: FGFR2; 1 uM; read-out: Percent Control (%)
T2 construct: purchased DiscoverX
T2 sequence (P21802 22-821): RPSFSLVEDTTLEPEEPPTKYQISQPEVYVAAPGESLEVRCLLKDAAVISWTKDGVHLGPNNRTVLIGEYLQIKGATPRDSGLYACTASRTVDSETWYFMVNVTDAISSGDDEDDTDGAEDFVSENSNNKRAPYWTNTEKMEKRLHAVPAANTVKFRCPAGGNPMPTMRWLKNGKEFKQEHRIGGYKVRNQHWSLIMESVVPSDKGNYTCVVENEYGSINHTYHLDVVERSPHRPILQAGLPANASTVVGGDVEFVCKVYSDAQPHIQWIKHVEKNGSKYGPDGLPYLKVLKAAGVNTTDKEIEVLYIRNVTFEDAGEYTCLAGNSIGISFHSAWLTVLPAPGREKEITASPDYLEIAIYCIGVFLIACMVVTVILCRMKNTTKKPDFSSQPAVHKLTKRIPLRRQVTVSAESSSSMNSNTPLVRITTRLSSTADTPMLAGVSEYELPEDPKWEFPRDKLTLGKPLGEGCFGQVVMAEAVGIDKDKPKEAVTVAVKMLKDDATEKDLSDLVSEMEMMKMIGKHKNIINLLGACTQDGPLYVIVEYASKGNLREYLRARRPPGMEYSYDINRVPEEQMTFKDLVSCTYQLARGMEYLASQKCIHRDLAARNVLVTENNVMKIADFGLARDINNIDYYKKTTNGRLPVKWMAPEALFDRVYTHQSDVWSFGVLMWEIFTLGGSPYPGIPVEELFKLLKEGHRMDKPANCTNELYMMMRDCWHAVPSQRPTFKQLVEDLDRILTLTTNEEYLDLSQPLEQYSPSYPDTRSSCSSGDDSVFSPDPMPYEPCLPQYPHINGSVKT
Outline: as §1

[3] = molecular target: T3, scanMAX Kinase assay panel (Homo sapiens, UniProt P08631); conditions: HCK; 1 uM; read-out: Percent Control (%)
T3 construct: purchased DiscoverX
T3 sequence (P08631 whole entry): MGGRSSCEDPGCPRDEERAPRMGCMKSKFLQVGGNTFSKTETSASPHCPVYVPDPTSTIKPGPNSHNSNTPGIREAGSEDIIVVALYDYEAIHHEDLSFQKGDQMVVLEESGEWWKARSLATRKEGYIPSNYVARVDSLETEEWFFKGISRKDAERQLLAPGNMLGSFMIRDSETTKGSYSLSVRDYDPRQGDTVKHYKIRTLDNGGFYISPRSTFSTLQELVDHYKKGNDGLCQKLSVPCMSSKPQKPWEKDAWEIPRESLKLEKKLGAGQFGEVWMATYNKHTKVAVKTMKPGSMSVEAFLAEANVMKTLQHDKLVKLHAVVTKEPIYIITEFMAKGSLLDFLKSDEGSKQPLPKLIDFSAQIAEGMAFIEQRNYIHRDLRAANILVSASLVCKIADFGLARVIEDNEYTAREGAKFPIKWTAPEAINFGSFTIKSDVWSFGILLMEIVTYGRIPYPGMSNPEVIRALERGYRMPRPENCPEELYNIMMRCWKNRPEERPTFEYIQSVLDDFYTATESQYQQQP
Outline: as §1

[4] = molecular target: T4, scanMAX Kinase assay panel (Homo sapiens, UniProt Q9UPZ9); conditions: ICK; 1 uM; read-out: Percent Control (%)
T4 construct: purchased DiscoverX
T4 sequence (Q9UPZ9 1-632): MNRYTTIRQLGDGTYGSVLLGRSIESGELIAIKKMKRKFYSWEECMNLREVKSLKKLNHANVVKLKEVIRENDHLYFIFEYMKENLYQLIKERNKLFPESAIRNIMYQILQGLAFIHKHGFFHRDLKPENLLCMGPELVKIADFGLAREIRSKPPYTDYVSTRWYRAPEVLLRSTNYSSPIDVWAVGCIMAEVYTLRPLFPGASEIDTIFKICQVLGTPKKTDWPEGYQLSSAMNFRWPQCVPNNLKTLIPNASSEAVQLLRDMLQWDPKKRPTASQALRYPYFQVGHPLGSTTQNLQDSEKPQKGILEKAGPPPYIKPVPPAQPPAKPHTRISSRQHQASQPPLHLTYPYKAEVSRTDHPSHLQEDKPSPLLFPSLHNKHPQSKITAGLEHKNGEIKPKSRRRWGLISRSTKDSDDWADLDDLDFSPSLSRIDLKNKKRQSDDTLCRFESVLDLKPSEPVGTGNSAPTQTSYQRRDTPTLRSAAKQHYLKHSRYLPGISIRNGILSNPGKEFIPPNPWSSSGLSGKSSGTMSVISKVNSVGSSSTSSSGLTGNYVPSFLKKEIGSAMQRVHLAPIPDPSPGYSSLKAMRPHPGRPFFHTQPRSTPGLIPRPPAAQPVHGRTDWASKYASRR
Outline: as §1

[5] = molecular target: T5, scanMAX Kinase assay panel (Homo sapiens, UniProt P36888, N841I); conditions: FLT3 (N841I); 1 uM; read-out: Percent Control (%)
T5 construct: purchased DiscoverX
T5 sequence (P36888 27-993 N841I): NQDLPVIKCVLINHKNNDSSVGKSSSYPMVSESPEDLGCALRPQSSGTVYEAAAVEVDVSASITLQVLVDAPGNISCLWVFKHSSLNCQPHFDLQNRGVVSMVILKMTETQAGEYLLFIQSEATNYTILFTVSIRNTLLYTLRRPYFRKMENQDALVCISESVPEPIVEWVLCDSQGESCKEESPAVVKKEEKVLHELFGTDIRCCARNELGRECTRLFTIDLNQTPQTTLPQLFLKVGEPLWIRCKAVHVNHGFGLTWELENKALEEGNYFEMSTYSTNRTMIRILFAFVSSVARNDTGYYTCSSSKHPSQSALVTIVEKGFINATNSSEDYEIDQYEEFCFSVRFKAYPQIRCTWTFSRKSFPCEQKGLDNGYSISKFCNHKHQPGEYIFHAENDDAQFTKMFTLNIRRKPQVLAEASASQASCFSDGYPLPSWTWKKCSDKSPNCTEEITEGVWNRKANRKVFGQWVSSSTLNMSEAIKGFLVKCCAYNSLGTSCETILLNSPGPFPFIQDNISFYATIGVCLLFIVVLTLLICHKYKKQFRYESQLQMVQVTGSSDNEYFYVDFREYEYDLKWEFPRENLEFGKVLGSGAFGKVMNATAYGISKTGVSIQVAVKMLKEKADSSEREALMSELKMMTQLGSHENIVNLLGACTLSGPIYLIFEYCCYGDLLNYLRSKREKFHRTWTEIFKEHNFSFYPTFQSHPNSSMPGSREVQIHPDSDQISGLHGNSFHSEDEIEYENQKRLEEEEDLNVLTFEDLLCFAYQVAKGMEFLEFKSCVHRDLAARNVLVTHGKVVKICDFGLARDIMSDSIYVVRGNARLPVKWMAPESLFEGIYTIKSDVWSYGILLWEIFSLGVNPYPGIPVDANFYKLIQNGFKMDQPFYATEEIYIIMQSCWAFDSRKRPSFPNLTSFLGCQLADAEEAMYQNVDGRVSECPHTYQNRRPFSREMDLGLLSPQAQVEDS
Outline: as §1

[6] = molecular target: T6, scanMAX Kinase assay panel (Homo sapiens, UniProt Q96GD4); conditions: AURKB; 1 uM; read-out: Percent Control (%)
T6 construct: purchased DiscoverX
T6 sequence (Q96GD4 whole entry): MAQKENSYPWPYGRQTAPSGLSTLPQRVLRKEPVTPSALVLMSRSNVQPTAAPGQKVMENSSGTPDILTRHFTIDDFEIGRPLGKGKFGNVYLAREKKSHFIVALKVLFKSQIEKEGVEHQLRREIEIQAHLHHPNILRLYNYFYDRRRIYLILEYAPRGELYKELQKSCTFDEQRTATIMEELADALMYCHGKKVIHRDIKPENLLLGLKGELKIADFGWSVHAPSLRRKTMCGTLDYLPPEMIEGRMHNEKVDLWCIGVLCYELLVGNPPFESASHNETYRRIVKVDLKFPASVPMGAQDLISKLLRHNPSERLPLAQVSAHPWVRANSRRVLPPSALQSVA
Outline: as §1

`Cc1ccc(C(=O)Nc2ccc(CN3CCN(C)CC3)c(C(F)(F)F)c2)cc1C#Cc1cnc2c(Nc3cnn(C)c3)cccn12` [Example 1, 4-methyl-3-((8-((1-methyl-1H-pyrazol-4-yl)amino)imidazo[1,2-a]pyridin-3-yl)ethynyl)-N-(4-((4-methylpiperazin-1-yl)methyl)-3-(trifluoromethyl)phenyl)benzamide] showed a remaining binding at 1 µM [1] of 0%, a remaining binding at 1 µM [2] of 2% and a remaining binding at 1 µM [3] of 0%. For the same molecule, the remaining binding at 1 µM [4] was 58%, the remaining binding at 1 µM [5] was 0% and the remaining binding at 1 µM [6] was 3%.

Work on `Cc1cn(-c2cc(NC(=O)c3ccc(C)c(C#Cc4cnc5c(Nc6cnn(C)c6)cccn45)c3)cc(C(F)(F)F)c2)cn1` [Example 12, 4-methyl-N-(3-(4-methyl-1H-imidazol-1-yl)-5-(trifluoromethyl)phenyl)-3-((8-((1-methyl-1H-pyrazol-4-yl)amino)imidazo[1,2-a]pyridin-3-yl)ethynyl)benzamide] yielded a remaining binding at 1 µM [1] of 8%, a remaining binding at 1 µM [2] of 11% and a remaining binding at 1 µM [3] of 1%. The remaining binding at 1 µM [4] was 100%, the remaining binding at 1 µM [5] was 28% and the remaining binding at 1 µM [6] was 56%.

`Cc1ccc(NC(=O)C2(C(=O)Nc3ccc(F)cc3)CC2)cc1C#Cc1cnc2c(Nc3cnn(C(C)C)c3)cccn12` [Example 78] gave a remaining binding at 1 µM [1] of 84%, a remaining binding at 1 µM [2] of 100% and a remaining binding at 1 µM [3] of 71%. For the same molecule, the remaining binding at 1 µM [4] was 100%, the remaining binding at 1 µM [5] was 59% and the remaining binding at 1 µM [6] was 34%.
